In patent US20250186461A1, “METHODS AND COMPOSITIONS FOR TREATING AND/OR PREVENTING HERNIAS” (Northwestern University, priority 2023, published 2025):
Entries after “also recorded” stand apart in the source; their conditions may differ.

What was measured:
[1] = target: T1, aromatase enzyme (Homo sapiens, UniProt P11511); conditions: cited from earlier work
T1 sequence (P11511 1-503): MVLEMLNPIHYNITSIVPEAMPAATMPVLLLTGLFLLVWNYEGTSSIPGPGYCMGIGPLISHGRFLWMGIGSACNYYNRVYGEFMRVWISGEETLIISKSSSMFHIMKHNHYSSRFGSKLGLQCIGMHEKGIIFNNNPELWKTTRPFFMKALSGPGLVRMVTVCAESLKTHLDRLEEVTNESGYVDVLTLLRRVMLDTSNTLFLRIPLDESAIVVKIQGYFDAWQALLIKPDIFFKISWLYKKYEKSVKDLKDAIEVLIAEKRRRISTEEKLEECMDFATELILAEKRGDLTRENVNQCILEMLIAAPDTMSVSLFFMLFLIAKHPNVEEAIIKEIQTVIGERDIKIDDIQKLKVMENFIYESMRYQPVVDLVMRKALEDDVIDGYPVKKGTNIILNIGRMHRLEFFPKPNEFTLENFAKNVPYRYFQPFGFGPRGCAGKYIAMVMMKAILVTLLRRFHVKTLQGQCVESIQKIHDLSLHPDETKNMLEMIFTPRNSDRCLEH

[2] = test system: LAM fibroblasts from Arom^hum mice; test: Click-iT EdU proliferation assay; type: cell-based, mouse; conditions: 1 μM antagonist; E2 (10 nM)+R5020 (100 nM)
[3] = test system: Arom^hum mice; test: Halting progression of small/medium-sized hernias in Arom^hum mice; type: in vivo, mouse; conditions: 12-week treatment started when small/medium-sized hernias were formed, n=10, vs placebo
Protocol: The treatment started when small/medium-sized hernias were formed. ****p<0.0001.
Hernias will be classified as small, medium, or large if the bulging area through muscle tissue is 125-175 mm^2, 175-225 mm^2, or >225 mm^2, respectively. […] We will assess whether muscle fibrosis, atrophy, and hernia are arrested or reversed. […] Hernia size will be measured. After completion of treatment, the mice will be dissected, and LAM, UAM (control), and serum will be collected. A total of 100 mg of tissue (LAM and UAM) will be obtained and frozen for measurement of tissue E2/P4. Circulating and tissue E2/P4 levels will be measured using LC-MS^2. We will use immunoblotting and IHC to determine PGR expression in LAM and UAM tissues. PGR target gene expression (Greb1, Cyp7b1) will be measured in paraformaldehyde-fixed LAM tissues using RNAScope and IHC. […] We will continue to complete the rest of the proposed study in this subaim. We will also assess whether muscle fibrosis, atrophy, and large hernia are halted.

[4] = test system: LAM primary fibroblasts from Arom^hum mice; test: mRNA levels of P4/PGR-responsive and fibrotic genes in LAM primary fibroblasts; type: cell-based, mouse; conditions: for E2+R5020-stimulated expression of Col1a1 and Col12a1, blockade: pretreatment with 1 μM antagonist
[5] = target: T2, glucocorticoid receptor (GR) (Homo sapiens, UniProt P04150); conditions: cited from earlier work
T2 sequence (P04150 1-777): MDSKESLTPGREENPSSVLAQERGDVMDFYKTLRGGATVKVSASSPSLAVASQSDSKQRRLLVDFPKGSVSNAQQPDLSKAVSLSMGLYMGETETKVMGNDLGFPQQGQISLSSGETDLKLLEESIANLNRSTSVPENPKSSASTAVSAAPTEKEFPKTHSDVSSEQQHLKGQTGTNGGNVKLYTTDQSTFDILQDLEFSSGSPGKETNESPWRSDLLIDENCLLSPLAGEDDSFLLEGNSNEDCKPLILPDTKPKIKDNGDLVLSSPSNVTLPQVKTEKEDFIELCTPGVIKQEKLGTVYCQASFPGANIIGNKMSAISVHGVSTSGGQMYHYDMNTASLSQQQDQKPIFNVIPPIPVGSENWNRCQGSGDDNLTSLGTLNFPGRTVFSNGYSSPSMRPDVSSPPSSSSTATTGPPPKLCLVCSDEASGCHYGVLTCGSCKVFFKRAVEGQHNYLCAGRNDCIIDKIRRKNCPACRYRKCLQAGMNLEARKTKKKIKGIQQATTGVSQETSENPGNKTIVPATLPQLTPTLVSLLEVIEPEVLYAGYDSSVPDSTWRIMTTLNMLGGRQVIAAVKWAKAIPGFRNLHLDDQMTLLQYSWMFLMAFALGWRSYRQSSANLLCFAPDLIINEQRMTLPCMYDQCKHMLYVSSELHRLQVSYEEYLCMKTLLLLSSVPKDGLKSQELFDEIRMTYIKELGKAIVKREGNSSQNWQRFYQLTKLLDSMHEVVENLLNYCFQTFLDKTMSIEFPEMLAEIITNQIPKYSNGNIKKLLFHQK

Row | Compound | inhibition of aromatase enzyme activity [1] | inhibition of E2+R5020-stimulated LAM fibroblast proliferation [2] | progression (growth) of small/medium-sized hernias, hernia area [3] | E2+R5020-induced expression of P4/PGR-responsive (Greb1, Cyp7b1) and fibrotic genes (Adamtsl1, Col1a1, Col14a1) ([4]; 1 μM antagonist, pretreated 2 h before E2 (10 nM)+R5020 (100 nM)) | E2+R5020-stimulated expression of Col1a1 and Col12a1, blockade [4] | anti-glucocorticoid activity [5]
1 | CC(=O)O[C@]1(C(C)=O)CC[C@H]2[C@@H]3CCC4=CC(=O)CCC4=C3[C@@H](c3ccc(N(C)C)cc3)C[C@@]21C [UPA, Ulipristal acetate] | does not inhibit aromatase enzyme activity | inhibited; also recorded: blocked | halted the progression of small/medium-sized hernias in Arom^hum mice; also recorded: halted the growth of small- and medium-size hernias in all treated Arom^hum mice | significantly decreased | blocked | extremely low anti-glucocorticoid activity
2 | CC#C[C@]1(O)CC[C@H]2[C@@H]3CCC4=CC(=O)CCC4=C3[C@@H](c3ccc(N(C)C)cc3)C[C@@]21C [RU486, Mifepristone] | does not inhibit aromatase enzyme activity | inhibited; also recorded: blocked | halted the progression of small/medium-sized hernias in Arom^hum mice; also recorded: halted the growth of small- and medium-size hernias in all treated Arom^hum mice |  | blocked | has anti-glucocorticoid effects
